One assay concerns Zucker rats. The class given is in vivo. To be noted: orally administered at 0.625, 1.25 and 2.5 mg/kg. On the procedure: For novel object recognition test, Zucker rats were placed into a test chamber (dimension 26″×18″×18″; L×W×H). Food and water was not be permitted during the test. The test had 3 phases: a) Familiarisation phase: Rats were singly placed in test chamber and allowed to freely explore for 60 min. The distance travelled by the animal during this phase was recorded using tracking software (AnyMaze system). The purpose of this phase was to familiarise the animals to the test apparatus. […] The distance travelled by the animal during this sample phase was automatically recorded, as well as the time spent by the animal interacting with the novel objects, using a tracking software system and visual observation. […] The distance travelled by the animal during the test phase was automatically recorded, as well as the time spent by the animal interacting with the novel and familiar objects, using a tracking software system and visual observation. Object interaction scores during both the sample and test phase were independently recorded by 2 observers. The final score represents the difference score between each reading. […]

Assay [1] addresses T1, CRM1-mediated nuclear export (Homo sapiens, UniProt O14980).
T1 construct: endogenous in cells; host or cells: U2OS-RevGFP cells
Put plainly: RevGFP assay, inhibition of nuclear export. The class given is cell-based. The conditions noted are these: U2OS-RevGFP cells, about 1 hr incubation; read-out: Rev Export. The procedure: The ability of exemplary compounds of the invention to inhibit CRM1-mediated nuclear export was assessed in a RevGFP assay. Rev is a protein from human immunodeficiency virus type 1 (HIV-1) and contains a nuclear export signal (NES) in its C-terminal domain and a nuclear localization signal (NLS) in its N-terminal domain. Nuclear export of Rev protein is dependent on the classical NES/CRM1 pathway (Neville et al. 1997).
In this assay, U2OS-RevGFP cells were seeded onto clear-bottomed, black, 384-well plates the day before the experiment. Compounds were serially diluted 1:2 in DMEM, starting from 40 μM in a separate, 384-well plate, and then transferred onto the cells. The cells were incubated with compound for about 1 hr before fixation with 3.7% formaldehyde and nuclei staining with Hoechst 33258. The amount of GFP in cell nuclei was measured and the IC50 of each compound was determined (Kau et al. 2003).

For assay [2], the system named is MDA-MB-468 triple negative breast cancer cells. To be noted: oral, day 33 post inoculation. The procedure: MDA-MB-468 (ATCC #HTB-132)triple negative breast cancer cells were obtained from ATCC. These cells were grown in Leibovitz's L-15 medium supplemented with 10% fetal calf serum (FCS), 1% penicillin and streptomycin, and 2 mM L-glutamine. Cells were sub-cultured by dilution at a ratio of 1:3. Fifty (50) female SCID mice (Charles River Labs), aged 5 to 6 weeks, with a mean pre-treatment body weight of 19.2 grams were used. SCID mice were inoculated s.c. in the left flank with 5×10^6 MDA-MB-468 cells. When the tumors reached a mean size of between 100 and 200 mm^3, mice were randomly and prospectively divided into a vehicle control group of ten (10) mice and five treatment groups of eight (8) mice per group.
All administrations were via the oral route. Animals were fed with sterile Labdiet® 5053 (pre-sterilized) rodent chow and sterile water was provided ad libitum. Tumors were measured once every two days with micro-calipers, and tumor volume was calculated as (length×width×width)/2. All animals were weighed every day in order to assess differences in weight among treatment groups and monitor wellness of animals. […] Any animals with a tumor over 1500 mm^3 in volume were also euthanized. Survival was recorded daily. […] Statistical differences between treatment groups were determined using Mann-Whitney Rank Sum or ANOVA tests with a critical value of 0.05.

The subject of another assay is UACC812. Briefly: Cell proliferation assay, UACC812. It is filed as cell-based. The conditions noted are these: Homo sapiens, UACC-812; UACC812, type Lu, 72 h. The procedure: (§1) The cells were seeded at 5×10^3 to 1.5×10^4 cells (depending on cell type) in each well of a 96-well plate in 100 μL of fresh culture medium and adherent cells were allowed to attach overnight. The stock solutions of the compounds were diluted in cell culture medium to obtain eight concentrations of each drug, ranging from 1 nM to 30 μM and DMSO at less than 1% v/v was used as a negative control. The resulting drug solutions were transferred onto the cells. After 72 h of treatment, 20 μl of CellTiter 96® AQueous reagent was added into each well of the 96-well assay plates and the plate was incubated at 37° C. for 1-4 hours in a humidified, 5% CO2 atmosphere. Then the absorbance of each well was recorded at 490 nm using a 96-well plate reader. In most cases, the assay was performed in triplicate and the results were presented as half maximal inhibitory concentration (IC50).

For the next assay, the system named is MCF12A. Put plainly: Cell proliferation assay, MCF12A. The class given is cell-based. To be noted: Homo sapiens, MCF-12A, type BaB, 72 h. The procedure: as §1
The test system of a further assay is HS578T cells. Briefly: Anti-apoptosis and cell cycle proteins immunoblot, HS578T. The class given is cell-based. The conditions noted are these: increasing concentrations, 24 hours. Background: Immunoblotting shows a protein as a band on a membrane.
The next assay has as its system HS578T TNBC cells. Briefly: Apoptosis marker immunoblot, HS578T. It is filed as cell-based. To be noted: 0 to 10 μM, 24 hours. On the procedure:
(§2) MDA-MB-468 TNBC, DU4475 and HS578T TNBC cells were exposed to concentrations of Compound 1-3 ranging from 0 to 10 μM for 24 hours. After 24 hours, whole protein cell extracts were run on immunoblots and were exposed to antibodies against the proteins indicated in FIGS. 2A-2C.

In the next assay the test system is HCC-202. Put plainly: Cell proliferation assay, HCC-202. It is filed as cell-based. To be noted: HCC202; HCC-202, type Lu/HER+, 72 h. The procedure:
as §1

The next assay relates to MDA-MB-468 TNBC cells. Put plainly: Apoptosis marker immunoblot, MDA-MB-468. It is filed as cell-based. The conditions noted are these: MDA-MB-468, 0 to 10 μM, 24 hours. The procedure:
as §2

Another assay has as its system BT-20. Put plainly: Cell proliferation assay, BT-20. The class given is cell-based. To be noted: Homo sapiens; BT-20, type BaA, 72 h. On the procedure: as §1

The source of these data is patent US12291508B2, “Hydrazide containing nuclear transport modulators and uses thereof” (Karyopharm Therapeutics Inc., priority 2011, dated 2025).

Where a name gives a salt, the structure may show the parent alone. Read-outs that look alike come from different tables or passages of the source. Bounds are passed on as bounds.

T1 sequence (O14980 whole entry): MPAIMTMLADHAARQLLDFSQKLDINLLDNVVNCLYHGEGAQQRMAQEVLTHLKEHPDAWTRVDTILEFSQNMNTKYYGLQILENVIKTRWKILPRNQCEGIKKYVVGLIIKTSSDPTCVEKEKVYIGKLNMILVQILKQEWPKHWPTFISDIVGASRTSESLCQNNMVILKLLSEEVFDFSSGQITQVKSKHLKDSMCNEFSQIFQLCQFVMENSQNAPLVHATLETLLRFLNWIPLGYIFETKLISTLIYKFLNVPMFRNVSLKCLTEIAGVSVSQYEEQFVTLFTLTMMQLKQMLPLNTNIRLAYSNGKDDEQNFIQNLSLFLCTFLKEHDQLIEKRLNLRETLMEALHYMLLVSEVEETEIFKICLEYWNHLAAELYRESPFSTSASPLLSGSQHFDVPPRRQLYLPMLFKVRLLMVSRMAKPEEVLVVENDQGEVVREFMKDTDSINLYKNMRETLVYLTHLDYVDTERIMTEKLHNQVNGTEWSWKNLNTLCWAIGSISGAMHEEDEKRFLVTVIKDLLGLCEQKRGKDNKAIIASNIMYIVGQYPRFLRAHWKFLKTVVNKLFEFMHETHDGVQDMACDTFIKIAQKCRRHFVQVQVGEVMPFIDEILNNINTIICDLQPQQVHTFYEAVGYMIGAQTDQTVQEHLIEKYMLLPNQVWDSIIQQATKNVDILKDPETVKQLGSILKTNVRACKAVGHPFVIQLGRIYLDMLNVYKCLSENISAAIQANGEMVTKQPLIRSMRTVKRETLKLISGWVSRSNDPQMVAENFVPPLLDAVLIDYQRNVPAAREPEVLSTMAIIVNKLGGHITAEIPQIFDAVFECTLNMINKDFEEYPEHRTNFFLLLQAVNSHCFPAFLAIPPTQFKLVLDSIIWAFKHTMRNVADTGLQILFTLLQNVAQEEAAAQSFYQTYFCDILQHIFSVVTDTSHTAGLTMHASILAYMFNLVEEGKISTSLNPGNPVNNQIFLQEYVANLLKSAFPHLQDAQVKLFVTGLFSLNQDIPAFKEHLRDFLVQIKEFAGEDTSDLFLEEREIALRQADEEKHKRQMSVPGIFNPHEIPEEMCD

Take `O=C(/C=C\n1cnc(-c2cc(C(F)(F)F)cc(C(F)(F)F)c2)n1)NNc1ccccn1` [Compound I-4, (Z)-3-(3-(3,5-bis(trifluoromethyl)phenyl)-1H-1,2,4-triazol-1-yl)-N′-(pyridin-2-yl)acrylohydrazide hydrochloride]: the “novel object recognition (object preference)” value with Zucker rats was “induced trends of improved novel object recognition”. For the same compound, the IC50 in assay [1] is not above 1000 nM.

Take `O=C(/C=C\n1cnc(-c2cc(C(F)(F)F)cc(C(F)(F)F)c2)n1)NNc1cnccn1` [Compound I-3, (Z)-3-(3-(3,5-bis(trifluoromethyl)phenyl)-1H-1,2,4-triazol-1-yl)-N′-(pyrazin-2-yl)acrylohydrazide]: the “inhibition of tumor growth compared with vehicle-treated animals” value is listed as “approximately 60%” in assay [2] (5 mg/kg Monday, Wednesday, Friday) and approximately 100% in assay [2] (25 mg/kg Monday, Thursday regimen). In addition, the IC50 with UACC812 came out at 590 nM; with MCF12A, 150 nM; with HCC-202, 5200 nM; in the assay with BT-20, 1500 nM. Also, the MCL-1 protein level entry in the assay on HS578T cells is on record as “a reduction in MCL-1 is observed”. Besides, in the assay with HS578T TNBC cells, the “apoptosis (cleaved PARP, cleaved caspase 3)” value is “only a negligible increase in cleaved PARP and cleaved caspase 3”. Besides, the “apoptosis (PARP, caspase 3, cleaved PARP, cleaved caspase 3)” value in the assay with MDA-MB-468 TNBC cells is given as “induces apoptosis”.
